According to BindingDB's records for doi:10.1016/j.bioorg.2016.08.011 (Recep Tayyip Erdogan University, 2016):

Each molecule was assayed against Alpha-glucosidase MAL12 (Saccharomyces cerevisiae (strain ATCC 204508 / S288c), UniProt P53341) (assay: α-Glucosidase inhibition assay). Settings: pH 6.8.
Protocol: α-Glucosidase inhibition assay was performed spectrophotometrically. α-Glucosidase from Saccharomyces cerevisiae (Sigma-Aldrich) was dissolved in phosphate buffer (pH 6.8, 50 mM). Test compounds were dissolved in DMSO. In 96-well microtiter plates, 20 µL of test sample, 20 µL of enzyme (20 mU/mL) and 135 µL of buffer were added and incubated for 15 min at 37 °C. After incubation, 25 µL of p-nitrophenyl-α-D-glucopyranoside (2 mM, Sigma Aldrich) was added and change in absorbance was monitored for 20 min at 400 nm. Test compound was replaced by DMSO (10% final) as control. […] The assays were done in triplicate.

Chain of Alpha-glucosidase MAL12 (P53341 whole entry): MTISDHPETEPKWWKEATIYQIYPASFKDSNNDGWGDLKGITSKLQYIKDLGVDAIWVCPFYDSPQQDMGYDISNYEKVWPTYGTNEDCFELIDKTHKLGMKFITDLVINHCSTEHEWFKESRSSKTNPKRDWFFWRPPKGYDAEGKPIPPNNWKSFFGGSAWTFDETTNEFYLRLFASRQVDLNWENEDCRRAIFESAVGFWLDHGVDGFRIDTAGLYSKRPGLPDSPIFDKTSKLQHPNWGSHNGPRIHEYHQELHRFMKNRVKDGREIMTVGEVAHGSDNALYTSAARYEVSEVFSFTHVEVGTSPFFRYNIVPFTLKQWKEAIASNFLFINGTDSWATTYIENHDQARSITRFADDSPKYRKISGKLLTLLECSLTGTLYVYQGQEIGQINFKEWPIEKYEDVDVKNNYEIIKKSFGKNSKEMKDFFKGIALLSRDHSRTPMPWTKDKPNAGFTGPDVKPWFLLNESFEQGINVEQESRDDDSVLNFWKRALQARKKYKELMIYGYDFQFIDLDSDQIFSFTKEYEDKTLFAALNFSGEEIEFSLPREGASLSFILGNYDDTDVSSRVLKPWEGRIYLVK

Question: For `O=C(Cn1c(Cc2ccc(Cl)cc2Cl)nc2ccc([N+](=O)[O-])cc21)NNC(=S)Nc1ccccc1` [2-{[2-(2,4-Dichlorobenzyl)-6-nitro-1H-benzimidazol-1-yl]acetyl}-N-phenyl hydrazinecarbothioamide (6b)], which IC50 is on record?
Answer: The IC50 was 93 µM.

Question: `O=[N+]([O-])c1cccc2nc(Cc3ccc(Cl)cc3Cl)n(Cc3nnc(S)n3-c3ccccc3)c12` [5-{[2-(2,4-Dichlorobenzyl)-7-nitro-1H-benzimidazol-1-yl]methyl}-4-phenyl-4H-1,2,4-triazole-3-thiol (7b)] was tested. Which IC50 did it give?
Answer: The IC50 was 40.5 µM.

Question: `O=C(Cn1c(Cc2ccc(Cl)cc2Cl)nc2ccccc21)NNC(=S)Nc1ccccc1` [2-{[2-(2,4-Dichlorobenzyl)-1H-benzimidazol-1-yl]acetyl}-N-phenylhydrazinecarbothioamide (6a)] was tested. Which IC50 did it give?
Answer: Its IC50 is 141 µM.

Question: Which IC50 does the source give for `Clc1ccc(Cc2nc3ccccc3n2Cc2nnc(Nc3ccccc3)s2)c(Cl)c1` [5-{[2-(2,4-Dichlorobenzyl)-1H-benzimidazol-1-yl]methyl}-N-phenyl-1,3,4-thiadiazol-2-amine (8a)] here?
Answer: Its IC50 is 158 µM.

Question: For `Sc1nnc(Cn2c(Cc3ccc(Cl)cc3Cl)nc3ccccc32)o1` [5-{[2-(2,4-Dichlorobenzyl)-1H-benzimidazol-1-yl]methyl}-1,3,4-oxadiazole-2-thiol (5a)], which IC50 is on record?
Answer: The IC50 was 254 µM.

Question: How did the IC50 turn out when `NNC(=O)Cn1c(Cc2ccc(Cl)cc2Cl)nc2ccc([N+](=O)[O-])cc21` [2-[2-(2,4-Dichlorobenzyl)-6-nitro-1H-benzimidazol-1-yl]acetohydrazide (4b)] was run?
Answer: The IC50 was 10.5 µM.

Question: `O=[N+]([O-])c1ccc2nc(Cc3ccc(Cl)cc3Cl)n(Cc3nnc(S)o3)c2c1` [5-{[2-(2,4-Dichlorobenzyl)-6-nitro-1H-benzimidazol-1-yl]methyl}-1,3,4-oxadiazole-2-thiol (5b)] was tested. Which IC50 did it give?
Answer: The IC50 was 26.9 µM.
